Results from ChEMBL document CHEMBL2321798, “Polyamino geranic derivatives as new chemosensitizers to combat antibiotic resistant gram-negative bacteria” (Bioorg Med Chem, 2013).
pIC50: −log10 of the molar value. ≈ marks a conversion by molar mass, not a printed value. Calls of active or inactive are those of the source. No cut-off for these calls is given here. Residues, ends and D or L forms follow the SMILES beside them. *: point of attachment. βNA = c1ccc2cc(N*)ccc2c1

Tests used:
Salmonella typhimurium [1] = assay: Reduction of multidrug-resistant in Salmonella enterica Typhimurium BN10055 harboring deltaacrB assessed as ratio of chloramphenicol MIC to chloramphenicol MIC in presence of compound by micro-broth dilution method; assay type: functional, organism-based; details: Salmonella enterica subsp. enterica serovar Typhimurium
Salmonella typhimurium [2] = assay: Reduction of multidrug-resistant in Salmonella enterica Typhimurium BN10055 harboring deltaacrB assessed as ratio of nalidixic acid MIC to nalidixic acid MIC in presence of compound by micro-broth dilution method; assay type: functional, organism-based; details: Salmonella enterica subsp. enterica serovar Typhimurium
Klebsiella aerogenes [3] = assay: Antibacterial activity against Enterobacter aerogenes Ea289 after 18 hrs by broth dilution method; assay type: functional; details: Ea289, 18 h
Salmonella typhimurium [4] = assay: Reduction of multidrug-resistant in Salmonella enterica Typhimurium BN10055 assessed as ratio of chloramphenicol MIC to chloramphenicol MIC in presence of compound at 75 uM by micro-broth dilution method; assay type: functional, Salmonella enterica subsp. enterica serovar Typhimurium
Salmonella typhimurium [5] = assay: Antibacterial activity against Salmonella enterica Typhimurium BN10055 after 18 hrs by broth dilution method; assay type: functional, Salmonella enterica subsp. enterica serovar Typhimurium; details: BN10055, 18 h
Klebsiella aerogenes [6] = assay: Reduction of multidrug-resistant in Enterobacter aerogenes Ea294 harboring Ea289deltaacrB assessed as ratio of chloramphenicol MIC to chloramphenicol MIC in presence of compound by micro-broth dilution method; assay type: functional, organism-based
Klebsiella aerogenes [7] = assay: Reduction of multidrug-resistant in Enterobacter aerogenes Ea289 assessed as ratio of chloramphenicol MIC to chloramphenicol MIC in presence of compound at 75 uM by micro-broth dilution method; assay type: functional
Salmonella typhimurium [8] = assay: Reduction of multidrug-resistant in Salmonella enterica Typhimurium BN10055 assessed as ratio of nalidixic acid MIC to nalidixic acid MIC in presence of compound at 75 uM by micro-broth dilution method; assay type: functional, Salmonella enterica subsp. enterica serovar Typhimurium
Klebsiella aerogenes [9] = assay: Reduction of multidrug-resistant in Enterobacter aerogenes Ea294 harboring Ea289deltaacrB assessed as ratio of nalidixic acid MIC to nalidixic acid MIC in presence of compound by micro-broth dilution method; assay type: functional, organism-based
Klebsiella aerogenes [10] = assay: Reduction of multidrug-resistant in Enterobacter aerogenes Ea289 assessed as ratio of nalidixic acid MIC to nalidixic acid MIC in presence of compound at 75 uM by micro-broth dilution method; assay type: functional
Klebsiella aerogenes [11] = assay: Antibacterial activity against Enterobacter aerogenes Ea294 harboring Ea289deltaacrB after 18 hrs by broth dilution method; assay type: functional; details: Ea294, 18 h
CHO = assay: Cytotoxicity against CHO cells; assay type: cell-based; details: Cricetulus griseus
[12] = target: T1, AcrB protein (Klebsiella aerogenes) (UniProt Q9AEG1); assay: Inhibition of AcrB in Enterobacter aerogenes Ea289 assessed as glucose-induced 1,2' dinaphthylamine efflux after 18 hrs
T1 sequence (whole entry): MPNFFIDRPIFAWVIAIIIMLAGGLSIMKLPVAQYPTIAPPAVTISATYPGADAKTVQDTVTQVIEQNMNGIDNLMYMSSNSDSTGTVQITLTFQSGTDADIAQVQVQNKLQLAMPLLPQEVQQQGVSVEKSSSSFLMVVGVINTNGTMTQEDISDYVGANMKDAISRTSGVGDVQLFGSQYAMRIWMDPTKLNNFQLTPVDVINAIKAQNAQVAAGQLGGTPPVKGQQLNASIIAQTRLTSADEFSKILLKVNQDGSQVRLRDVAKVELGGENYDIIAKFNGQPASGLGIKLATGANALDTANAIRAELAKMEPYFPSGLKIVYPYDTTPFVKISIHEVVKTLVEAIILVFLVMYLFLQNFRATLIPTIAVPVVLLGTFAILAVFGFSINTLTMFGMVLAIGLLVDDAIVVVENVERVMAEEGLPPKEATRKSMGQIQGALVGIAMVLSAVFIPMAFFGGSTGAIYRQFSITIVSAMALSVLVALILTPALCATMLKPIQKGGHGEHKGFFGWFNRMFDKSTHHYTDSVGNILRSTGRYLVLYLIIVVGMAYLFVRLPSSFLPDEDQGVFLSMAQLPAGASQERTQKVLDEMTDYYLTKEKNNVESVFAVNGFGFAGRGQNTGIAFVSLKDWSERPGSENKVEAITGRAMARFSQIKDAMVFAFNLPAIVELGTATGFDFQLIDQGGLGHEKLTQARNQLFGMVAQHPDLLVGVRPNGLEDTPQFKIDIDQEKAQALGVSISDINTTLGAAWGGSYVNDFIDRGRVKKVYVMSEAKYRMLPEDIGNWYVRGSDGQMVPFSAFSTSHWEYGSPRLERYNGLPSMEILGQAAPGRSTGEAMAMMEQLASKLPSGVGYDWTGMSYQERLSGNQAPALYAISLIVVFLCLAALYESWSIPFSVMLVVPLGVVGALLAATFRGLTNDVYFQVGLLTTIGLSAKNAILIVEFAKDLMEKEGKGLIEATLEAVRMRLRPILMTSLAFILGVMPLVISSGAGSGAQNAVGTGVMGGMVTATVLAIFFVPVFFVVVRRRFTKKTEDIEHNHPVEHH

Salmonella typhimurium [13] = assay: Antibacterial activity against Salmonella enterica Typhimurium BN10055 harboring deltaacrB after 18 hrs by broth dilution method; assay type: functional, Salmonella enterica subsp. enterica serovar Typhimurium; details: BN10055, 18 h
Salmonella typhimurium [14] = assay: Reduction of multidrug-resistant in Salmonella enterica Typhimurium BN10055 assessed as ratio of nalidixic acid MIC to nalidixic acid MIC in presence of compound at 38 uM by micro-broth dilution method; assay type: functional, Salmonella enterica subsp. enterica serovar Typhimurium
Klebsiella aerogenes [15] = assay: Reduction of multidrug-resistant in Enterobacter aerogenes Ea289 assessed as ratio of nalidixic acid MIC to nalidixic acid MIC in presence of compound at 38 uM by micro-broth dilution method; assay type: functional
Klebsiella aerogenes [16] = assay: Reduction of multidrug-resistant in Enterobacter aerogenes Ea289 assessed as ratio of chloramphenicol MIC to chloramphenicol MIC in presence of compound at 38 uM by micro-broth dilution method; assay type: functional
Salmonella typhimurium [17] = assay: Reduction of multidrug-resistant in Salmonella enterica Typhimurium BN10055 assessed as ratio of chloramphenicol MIC to chloramphenicol MIC in presence of compound at 38 uM by micro-broth dilution method; assay type: functional, Salmonella enterica subsp. enterica serovar Typhimurium

`CC(C)=CCC/C(C)=C/C(=O)NCCCN1CCOCC1` was tested, and the Activity (Salmonella typhimurium [1]) was “inactive”, the Activity (Salmonella typhimurium [2]) was “inactive” and the MIC (Klebsiella aerogenes [3]) was over 250 µM. For the same molecule, the Ratio (Salmonella typhimurium [4]) was 1, the MIC (Salmonella typhimurium [5]) was over 250 µM and the Activity (Klebsiella aerogenes [6]) was “inactive”. For the same molecule, the Ratio (Klebsiella aerogenes [7]) was 1, the Ratio (Salmonella typhimurium [8]) was 1 and the Activity (Klebsiella aerogenes [9]) was “inactive”. The Ratio (Klebsiella aerogenes [10]) was 1, the MIC (Klebsiella aerogenes [11]) was over 250 µM and the pIC50 (CHO) was under 3.82.

For `CC(C)=CCC/C(C)=C/C(=O)NCCCNCCCCNCCCN`, the inhibition [12] was “Dose-dependent effect”.

`O=C(N[C@H](CO)[C@H](O)c1ccc([N+](=O)[O-])cc1)C(Cl)Cl` [CHLORAMPHENICOL] showed an MIC (Klebsiella aerogenes [3]) of 3200 µM (≈ 1030 µg/mL), an MIC (Salmonella typhimurium [5]) of 3200 µM (≈ 1030 µg/mL) and an MIC (Klebsiella aerogenes [11]) of 200 µM (≈ 64.6 µg/mL). It also gave an MIC (Salmonella typhimurium [13]) of 200 µM (≈ 64.6 µg/mL).

`C[C@H]1c2cccc(O)c2C(=O)C2=C(O)[C@]3(O)C(=O)C(C(N)=O)=C(O)[C@@H](N(C)C)[C@@H]3[C@@H](O)[C@@H]21` [DOXYCYCLINE] showed an MIC (Klebsiella aerogenes [3]) of 72 µM (≈ 32 µg/mL), an MIC (Salmonella typhimurium [5]) of 144 µM (≈ 64 µg/mL) and an MIC (Klebsiella aerogenes [11]) of 2.25 µM (≈ 1 µg/mL). It also gave an MIC (Salmonella typhimurium [13]) of 4.5 µM (≈ 2 µg/mL).

`CC[C@H]1OC(=O)[C@H](C)[C@@H](O[C@H]2C[C@@](C)(OC)[C@@H](O)[C@H](C)O2)[C@H](C)[C@@H](O[C@@H]2O[C@H](C)C[C@H](N(C)C)[C@H]2O)[C@](C)(O)C[C@@H](C)C(=O)[C@H](C)[C@@H](O)[C@]1(C)O` [ERYTHROMYCIN] gave an MIC (Klebsiella aerogenes [3]) of 350 µM (≈ 257 µg/mL), an MIC (Salmonella typhimurium [5]) of 350 µM (≈ 257 µg/mL) and an MIC (Klebsiella aerogenes [11]) of 110 µM (≈ 80.7 µg/mL). It also gave an MIC (Salmonella typhimurium [13]) of 55 µM (≈ 40.4 µg/mL).

Work on `CCn1cc(C(=O)O)c(=O)c2ccc(C)nc21` [NALIDIXIC ACID] yielded an MIC (Klebsiella aerogenes [3]) of 17600 µM (≈ 4090 µg/mL), an MIC (Salmonella typhimurium [5]) of 17600 µM (≈ 4090 µg/mL) and an MIC (Klebsiella aerogenes [11]) of 4400 µM (≈ 1020 µg/mL). The MIC (Salmonella typhimurium [13]) was 275 µM (≈ 63.9 µg/mL).

Molecule `N=C(N)NCCC[C@H](NC(=O)[C@@H](N)Cc1ccccc1)C(=O)Nc1ccc2ccccc2c1` [PABETAN] (H-Phe-Arg-βNA) has an MIC (Klebsiella aerogenes [3]) of 2430 µM (≈ 1090 µg/mL), a Ratio (Salmonella typhimurium [14]) of 64 and a Ratio (Klebsiella aerogenes [15]) of 8. The MIC (Salmonella typhimurium [5]) was 1220 µM (≈ 543 µg/mL), the Ratio (Klebsiella aerogenes [16]) was 16 and the MIC (Klebsiella aerogenes [11]) was 150 µM (≈ 67 µg/mL). It also gave a Ratio (Salmonella typhimurium [17]) of 8 and an MIC (Salmonella typhimurium [13]) of 150 µM (≈ 67 µg/mL).
